{"source": "patent US20180280385A1", "about": "“NINTEDANIB FOR USE IN METHODS FOR THE TREATMENT OF MUSCULAR DYSTROPHY” (Boehringer Ingelheim International GmbH, priority 2017, published 2018)", "key": {"mdx mice [1]": {"tested_on": "mdx mice", "test": "Histological analysis of muscular fibrosis incl. immunofluorescent staining for collagen VI in mdx mice, 1st study", "assay_type": "in vivo, mouse", "description": "The treatment of the mdx mice with nintedanib started at an age of 10 months in the 1st study and at 6 weeks in a 2nd study. Treatment duration was 4 weeks in the 1st study and 7 weeks in the 2nd study. Nintedanib was used at a dose of 60 mg/kg once daily administered intragastrically via gavage in both studies.\n(§1) In the 1st study, 7 mdx mice were treated with nintedanib, 5 mdx mice with the vehicle as placebo and 5 C57Bl6/mice (=wild type=WT) were used as unaffected, untreated control animals. At the end of the 1st study, electrophysiological examinations using electroneurography and electromyography and a histological analysis were performed. In addition, the level of collagen I expression was investigated using western blot in 4 mice of each test group.\nAt the end of the 1st study, the diaphragm from non-treated mdx mice had increased fibrotic tissue areas, compared to WT mice, and inflammatory infiltrates.\nThe fibrotic area of the muscles was assessed using immunofluorescent staining for collagen VI (Col VI). 8 photographs from different muscle sections of the quadriceps, tibialis anterior and diaphragm were randomly taken. […] The reduction of 7% by nintedanib treatment was statistically significant (p<0.001) (FIG. 3A)."}, "mdx mice [2]": {"tested_on": "mdx mice", "test": "Electromyography (percentage of small, medium and large MUAPs) in mdx mice, 1st study", "assay_type": "in vivo, mouse", "settings": "mdx mice aged 10 months, 60 mg/kg once daily intragastrically, 4 weeks", "description": "(§2) The mdx mouse is a well characterized and widely used animal model for drug tests for DMD (Bulfield et al., Proc Natl Acad Sci USA 1984, 81, 1189-92). Mdx mice spontaneously develop a pathology resembling aspects of the human disease. They present cycles of degeneration and regeneration in the limb muscles and a progressive degeneration and fibrosis in the diaphragm (Coirault et al., J Appl Physiol 2003, 94, 1744-50). The first wave of degeneration peaks in the fourth week of life. At day 21, muscular lesions can be observed, including myofiber necrosis, leaking myofibers as a consequence of injuries to the sarcolemma, high levels of serum creatine kinase, and the presence of large areas of inflammation, connective tissue, and fat (Collins and Morgan, Int J Exp Pathol 2003, 84, 165-72; Grounds et al., Neurobiol Dis 2008, 31, 1-19). Compulsory physical activity can be applied to exacerbate the muscular degeneration during this phase (De Luca et al., Am J Pathol 2005, 166, 477-89; Grounds et al., Neurobiol Dis 2008, 31, 1-19). The treatment of the mdx mice with nintedanib started at an age of 10 months in the 1st study and at 6 weeks in a 2nd study. […] In the electromyography the percentage of small, medium and large motor unit action potentials (MUAPs) were recorded (Gordon et al., Can J Physiol Pharmacol 2004, 82, 645-661)."}, "mdx mice [3]": {"tested_on": "mdx mice", "test": "Electroneurography (amplitude of motor evoked potentials / CMAP) in mdx mice, 1st study", "assay_type": "in vivo, mouse", "settings": "mdx mice aged 10 months, 60 mg/kg once daily intragastrically, 4 weeks; versus non-treated mdx mice; statistically significant in tibialis anterior", "description": "as §2, with “group of” for “electromyography”, “nintedanib-treated mdx mice, an increase in the amplitude” for “percentage”, “the” for “small, medium and large”, “evoked” for “unit action”, “in all nerves studied was detected in comparison to non-treated mdx mice (FIG. 1A-C). […]” for “(MUAPs) were recorded (Gordon et al., Can J Physiol Pharmacol 2004, 82, 645-661).”"}, "mdx mice [4]": {"tested_on": "mdx mice", "test": "Collagen I expression by western blotting in muscle tissue of mdx mice, 1st study", "assay_type": "in vivo, mouse", "settings": "western blot, normalized to alpha-tubulin; versus mdx mice; 60 mg/kg once daily, 4 weeks", "description": "as §1, with “The treatment of the mdx mice with nintedanib started at an age of 10 months in the 1st study and at 6 weeks in a 2nd study. Treatment duration was 4 weeks in the 1st study and 7 weeks in the 2nd study. Nintedanib was used at a dose of 60 mg/kg once daily administered intragastrically via gavage in both studies. In the” for “In the”"}, "mdx mice [5]": {"tested_on": "mdx mice", "test": "Hanging wire test in mdx mice, 2nd study", "assay_type": "in vivo, mouse", "settings": "mdx mice from 6 weeks of age, 60 mg/kg once daily intragastrically", "description": "The treatment of the mdx mice with nintedanib started at an age of 10 months in the 1st study and at 6 weeks in a 2nd study. Treatment duration was 4 weeks in the 1st study and 7 weeks in the 2nd study. Nintedanib was used at a dose of 60 mg/kg once daily administered intragastrically via gavage in both studies. In the 2nd study, 7 mdx mice were treated with nintedanib, 5 mdx mice with the vehicle as placebo and no WT control was included as unaffected, untreated control animals. At the end of the 2nd study, a hanging wire test was performed. In the 2nd study a so called “hanging wire” test was performed (see section Examples and Experimental Data; Rabl et al., BMC Neurosci 2017, 18, 22). This test can be used to assess global “subacute” muscle function and coordination over time in young and old mdx mice. The longest suspension time (LST) and the “fall and reaches” score (FRS) were recorded before the start of the treatment period and after 7 weeks of treatment with nintedanib. […]"}, "animal model of DMD": {"tested_on": "animal model of DMD", "settings": "literature (Bizario 2009; Huang 2009; Ito 2013); cited from earlier work"}}, "data": [{"smiles": "COC(=O)c1ccc2c(c1)NC(=O)/C2=C(\\Nc1ccc(N(C)C(=O)CN2CCN(C)CC2)cc1)c1ccccc1", "note": "[nintedanib, Nintedanib]", "values": [{"measurement": "reduction of mean Col VI-stained fibrotic area of the diaphragma by treatment", "setting": "mdx mice [1]; difference to non-treated mdx mice, p<0.001", "result": 7, "unit": "%"}, {"measurement": "inflammatory infiltrates in the diaphragm (histology)", "setting": "mdx mice [1]; mdx mice aged 10 months, 60 mg/kg once daily intragastrically, 4 weeks", "result": "not observed"}, {"measurement": "fibrotic area of the diaphragm (histology)", "setting": "mdx mice [1]; mdx mice aged 10 months, 60 mg/kg once daily intragastrically, 4 weeks, versus non-treated mdx mice", "result": "clearly reduced"}, {"measurement": "Col VI staining in tibialis anterior sections", "setting": "mdx mice [1]; mdx mice aged 10 months, 60 mg/kg once daily, 4 weeks, non-treated mdx 21.4%, p=0.06, not statistically significant", "result": 18.9, "unit": "%"}, {"measurement": "Col VI staining in quadriceps sections", "setting": "mdx mice [1]; mdx mice aged 10 months, 60 mg/kg once daily, 4 weeks, non-treated mdx 25.4%, p=0.03", "result": 23.1, "unit": "%"}, {"measurement": "mean fibrotic area stained for Col VI on the diaphragma", "setting": "mdx mice [1]; mdx mice aged 10 months, 60 mg/kg once daily, 4 weeks, non-treated mdx 57.8%, p<0.001", "result": 50.8, "unit": "%"}, {"measurement": "large MUAPs", "setting": "mdx mice [2]", "result": "increase"}, {"measurement": "percentage of small MUAPs", "setting": "mdx mice [2]", "result": "normalized"}, {"measurement": "amplitude of the motor evoked potentials (CMAP) in all nerves studied (tibialis anterior, Gastrocnemius, Plantar muscle)", "setting": "mdx mice [3]", "result": "increase"}, {"measurement": "collagen I (Col I) expression in the diaphragm", "setting": "mdx mice [4]", "result": "statistically significant decrease"}, {"measurement": "collagen I (Col I) expression in the tibialis anterior", "setting": "mdx mice [4]", "result": "statistically significant decrease"}, {"measurement": "\"fall and reaches\" score (FRS)", "setting": "mdx mice [5]; 7 week observation period, decreased in vehicle-treated mice", "result": "remained nearly constant"}, {"measurement": "longest suspension time (LST)", "setting": "mdx mice [5]; after 7 weeks of treatment versus before start", "result": "increased"}]}, {"smiles": "Cc1ccc(NC(=O)c2ccc(CN3CCN(C)CC3)cc2)cc1Nc1nccc(-c2cccnc2)n1", "note": "[imatinib]", "values": [{"measurement": "efficacy in an animal model of DMD", "setting": "animal model of DMD", "result": "had shown efficacy"}]}]}
